Read-outs that look alike come from different tables or passages of the source.
Tested on: pdr5 ypt1^ts cells
Assay: microbe, parasite or virus in culture
Type: cell-based, yeast
Settings: for minimal effective concentration: read-out: ypt1-ts MRC (minimal rescue concentration); for optical density, ypt1-ts, 0.39: 0.39 μM compound; for optical density, ypt1-ts, 0.39 / optical density, ypt1-ts, 0.78 / optical density, ypt1-ts, 1.56 / optical density, ypt1-ts, 3.13 / optical density, ypt1-ts, 6.25 / optical density, ypt1-ts, 12.5 / optical density, ypt1-ts, 25: background (0 μM) 0.058; for optical density, ypt1-ts, 0.78: 0.78 μM compound; for optical density, ypt1-ts, 1.56: 1.56 μM compound; for optical density, ypt1-ts, 3.13: 3.13 μM compound; for optical density, ypt1-ts, 6.25: 6.25 μM compound; for optical density, ypt1-ts, 12.5: 12.5 μM compound; for optical density, ypt1-ts, 25: 25 μM compound
Outline: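 Whole-cell yeast growth-rescue screen: pdr5 ypt1^ts cells (efflux pump inactivated), growth-arrested at 37° C., cultured with compounds at 37° C. Restoration of growth read by optical density.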

[1] = Table 3, 3.13 uM compound, 37° C., background (0 uM) 0.077
[2] = Table 3, 12.5 uM compound, 37° C., background (0 uM) 0.077
[3] = Table 3, 50 uM compound, 37° C., background (0 uM) 0.077
[4] = Saccharomyces cerevisiae, Table 2, lowest concentration tested giving growth above the 0 μM background, 37° C.

C#CCCCCCCCCCCCC(=O)CC(O)COC(C)=O (centres unmarked) [AVO- CADYNONE ACETATE]
optical density, 3.13 uM [1]: 0.126 | optical density, 12.5 uM [2]: 0.275 | optical density, 50 uM [3]: 0.057

CC1(C)C(=O)C=C[C@@]2(C)C1CC(=O)[C@]1(C)C2CC[C@@]2(C)[C@H](c3ccoc3)OC(=O)[C@H]3O[C@]321 (some centres unmarked) [DEACETOXY- 7-OXOGEDUNIN]
optical density, 3.13 uM [1]: 0.594 | optical density, 12.5 uM [2]: 0.63 | optical density, 50 uM [3]: 0.642

COc1ccc(-c2coc3c(OC)c(O)ccc3c2=O)cc1 [7-HYDROXY- 8,4′-DIMETH- OXYISO- FLAVONE]
optical density, 3.13 uM [1]: 0.121 | optical density, 12.5 uM [2]: 0.151 | optical density, 50 uM [3]: 0.398

COc1ccc2c(c1)O[C@H]1c3ccc(OC)cc3OC[C@@H]21 [HOMOPTEROCARPIN]
minimal effective concentration [4]: 25 µM | optical density, ypt1-ts, 0.39 (Table 2, 37° C.): 0.083 | optical density, ypt1-ts, 0.78 (Table 2, 37° C.): 0.064 | optical density, ypt1-ts, 1.56 (Table 2, 37° C.): 0.065 | optical density, ypt1-ts, 3.13 (Table 2, 37° C.): 0.071 | optical density, ypt1-ts, 6.25 (Table 2, 37° C.): 0.09 | optical density, ypt1-ts, 12.5 (Table 2, 37° C.): 0.117 | optical density, ypt1-ts, 25 (Table 2, 37° C.): 0.44

CC1(C)C(=O)C=C[C@]2(C)C3CC[C@@]4(C)[C@H](c5ccoc5)C[C@H]5O[C@]54C3[C@H](O)CC12 (some centres unmarked) [TRI- CHILENONE]
optical density, 3.13 uM [1]: 0.119 | optical density, 12.5 uM [2]: 0.283 | optical density, 50 uM [3]: 0.462

CC(CCC(=O)O)[C@H]1CCC2C3C(CC[C@@]21C)[C@@]1(C)CC[C@@H](O)C[C@H]1C[C@@H]3O (some centres unmarked) [URSODIOL, reference compound]
optical density, 3.13 uM [1]: 0.202 | optical density, 12.5 uM [2]: 0.41 | optical density, 50 uM [3]: 0.523

CCN(CC)CCNC(=O)c1cc(Cl)c(N)cc1OC.Cl [METO- […]- CHLORIDE, reference compound]
optical density, 3.13 uM [1]: 0.099 | optical density, 12.5 uM [2]: 0.158 | optical density, 50 uM [3]: 0.555

O=C(/C=C/c1ccccc1)c1ccc(O)cc1 [4'- HYDROXYCHALCONE]
minimal effective concentration [4]: 12.5 µM | optical density, ypt1-ts, 0.39 (Table 2, 37° C.): 0.088 | optical density, ypt1-ts, 0.78 (Table 2, 37° C.): 0.073 | optical density, ypt1-ts, 1.56 (Table 2, 37° C.): 0.079 | optical density, ypt1-ts, 3.13 (Table 2, 37° C.): 0.093 | optical density, ypt1-ts, 6.25 (Table 2, 37° C.): 0.1 | optical density, ypt1-ts, 12.5 (Table 2, 37° C.): 0.329 | optical density, ypt1-ts, 25 (Table 2, 37° C.): 0.552

CC(=O)OCC[N+](C)(C)C.[Cl-] [ACETYLCHOLINE, reference compound]
minimal effective concentration [4]: 6.25 µM | optical density, ypt1-ts, 0.39 (Table 2, 37° C.): 0.104 | optical density, ypt1-ts, 0.78 (Table 2, 37° C.): 0.087 | optical density, ypt1-ts, 1.56 (Table 2, 37° C.): 0.085 | optical density, ypt1-ts, 3.13 (Table 2, 37° C.): 0.113 | optical density, ypt1-ts, 6.25 (Table 2, 37° C.): 0.164 | optical density, ypt1-ts, 12.5 (Table 2, 37° C.): 0.27 | optical density, ypt1-ts, 25 (Table 2, 37° C.): 0.352

CCCSP(=O)(OCC)SCCC [ETHOPROP]
optical density, 3.13 uM: 0.118 | optical density, 12.5 uM: 0.134 | optical density, 50 uM: 0.251

CCOP(=S)(OCC)Oc1nc(Cl)c(Cl)cc1Cl [CHLOR- PYRIFOS]
optical density, 3.13 uM [1]: 0.122 | optical density, 12.5 uM [2]: 0.166 | optical density, 50 uM [3]: 0.253

O=C1c2c(O)ccc(O)c2C(=O)c2c(NCCNCCO)ccc(NCCNCCO)c21 [MITO- XANTHRONE HYDRO- CHLORIDE, reference compound]
optical density, 3.13 uM [1]: 0.149 | optical density, 12.5 uM [2]: 0.132 | optical density, 50 uM [3]: 0.313

COc1ccc(CC(=O)c2ccc(O)cc2O)cc1 [ONONETIN]
minimal effective concentration [4]: 6.25 µM | optical density, ypt1-ts, 0.39 (Table 2, 37° C.): 0.097 | optical density, ypt1-ts, 0.78 (Table 2, 37° C.): 0.08 | optical density, ypt1-ts, 1.56 (Table 2, 37° C.): 0.096 | optical density, ypt1-ts, 3.13 (Table 2, 37° C.): 0.111 | optical density, ypt1-ts, 6.25 (Table 2, 37° C.): 0.14 | optical density, ypt1-ts, 12.5 (Table 2, 37° C.): 0.3 | optical density, ypt1-ts, 25 (Table 2, 37° C.): 0.618

CC(CCC(=O)O)[C@H]1CCC2C3C(CC[C@@]21C)[C@@]1(C)CC[C@@H](O)C[C@H]1C[C@H]3O (some centres unmarked) [CHENODIOL, reference compound]
optical density, 3.13 uM [1]: 0.126 | optical density, 12.5 uM [2]: 0.285 | optical density, 50 uM [3]: 0.15

COC(=O)[C@]1(C)CC[C@]2(C)CC[C@]3(C)C4=CC=C5C(=CC(=O)C(O)=C5C)[C@]4(C)CC[C@@]3(C)[C@@H]2C1 [PRISTIMERIN]
optical density, ypt1-ts, 0.39 (Table 2, 37° C.): 0.534 | optical density, ypt1-ts, 0.78 (Table 2, 37° C.): 0.332 | optical density, ypt1-ts, 1.56 (Table 2, 37° C.): 0.669 | optical density, ypt1-ts, 3.13 (Table 2, 37° C.): 0.703 | optical density, ypt1-ts, 6.25 (Table 2, 37° C.): 0.68 | optical density, ypt1-ts, 12.5 (Table 2, 37° C.): 0.676 | optical density, ypt1-ts, 25 (Table 2, 37° C.): 0.677

CC(=O)O[C@@H]1c2c(ccc3ccc(=O)oc23)OC(C)(C)[C@@H]1OC(=O)CC(C)C [DIHYDROSAMIDIN]
minimal effective concentration [4]: 12.5 µM | optical density, ypt1-ts, 0.39 (Table 2, 37° C.): 0.091 | optical density, ypt1-ts, 0.78 (Table 2, 37° C.): 0.068 | optical density, ypt1-ts, 1.56 (Table 2, 37° C.): 0.079 | optical density, ypt1-ts, 3.13 (Table 2, 37° C.): 0.105 | optical density, ypt1-ts, 6.25 (Table 2, 37° C.): 0.097 | optical density, ypt1-ts, 12.5 (Table 2, 37° C.): 0.14 | optical density, ypt1-ts, 25 (Table 2, 37° C.): 0.221

CC(=O)O[C@@H]1CC2C(C)(C)[C@H](O)CC[C@]2(C)C2CC[C@@]3(C)[C@H](c4ccoc4)OC(=O)C4OC43[C@@]21C (stereo partly drawn) [3alpha- HYDROXY- DEOXO- DIHYDRO- GEDUNIN]
optical density, 3.13 uM [1]: 0.137 | optical density, 12.5 uM [2]: 0.25 | optical density, 50 uM [3]: 0.146

CC1(C)C2CC(=O)O[C@]3(C)C4=CC(=O)O[C@@H](c5ccoc5)[C@]4(C)CCC3[C@@]2(C)C=C[C@H]1O (some centres unmarked) [DEOXYANDIROBIN- LACTONE]
minimal effective concentration [4]: 3.13 µM | optical density, ypt1-ts, 0.39 (Table 2, 37° C.): 0.107 | optical density, ypt1-ts, 0.78 (Table 2, 37° C.): 0.082 | optical density, ypt1-ts, 1.56 (Table 2, 37° C.): 0.089 | optical density, ypt1-ts, 3.13 (Table 2, 37° C.): 0.137 | optical density, ypt1-ts, 6.25 (Table 2, 37° C.): 0.249 | optical density, ypt1-ts, 12.5 (Table 2, 37° C.): 0.524 | optical density, ypt1-ts, 25 (Table 2, 37° C.): 0.613

COc1c2occc2cc2ccc(=O)oc12 [METHOX- SALEN, reference compound]
optical density, 3.13 uM [1]: 0.124 | optical density, 12.5 uM [2]: 0.25 | optical density, 50 uM [3]: 0.38

Clc1ccc(Cl)cc1 [PARA- DICHLORO- BENZENE]
optical density, 3.13 uM [1]: 0.169 | optical density, 12.5 uM [2]: 0.28 | optical density, 50 uM [3]: 0.202

CC1=CC(=O)[C@H]2C(C)(C)CCC[C@]2(C)[C@@]1(O)CCc1ccoc1 [SOLIDAGENONE]
minimal effective concentration [4]: 6.25 µM | optical density, ypt1-ts, 0.39 (Table 2, 37° C.): 0.092 | optical density, ypt1-ts, 0.78 (Table 2, 37° C.): 0.077 | optical density, ypt1-ts, 1.56 (Table 2, 37° C.): 0.086 | optical density, ypt1-ts, 3.13 (Table 2, 37° C.): 0.11 | optical density, ypt1-ts, 6.25 (Table 2, 37° C.): 0.141 | optical density, ypt1-ts, 12.5 (Table 2, 37° C.): 0.439 | optical density, ypt1-ts, 25 (Table 2, 37° C.): 0.62

Cc1ccc2c(c1)CC[C@H]1CC(=O)CC[C@]21C [13-METHYL- 4,4-BISNOR- 8,11,13- PODO- […]- 3-ONE]
optical density, 3.13 uM [1]: 0.082 | optical density, 12.5 uM [2]: 0.152 | optical density, 50 uM [3]: 0.424

C/C=C(/C(=C/C)c1ccc(O)cc1)c1ccc(O)cc1 [DIENESTROL, reference compound]
optical density, 3.13 uM [1]: 0.142 | optical density, 12.5 uM [2]: 0.309 | optical density, 50 uM [3]: 0.044

COc1ccc2cc([C@H](C)C(=O)O)ccc2c1 [(+)NAPROXEN, reference compound]
minimal effective concentration (Saccharomyces cerevisiae): 25 µM

NIMODIPINE [reference compound]
optical density, ypt1-ts, 0.39 (Table 2, 37° C.): 0.097 | optical density, ypt1-ts, 0.78 (Table 2, 37° C.): 0.081 | optical density, ypt1-ts, 1.56 (Table 2, 37° C.): 0.096 | optical density, ypt1-ts, 3.13 (Table 2, 37° C.): 0.113 | optical density, ypt1-ts, 12.5 (Table 2, 37° C.): 0.178 | optical density, ypt1-ts, 25 (Table 2, 37° C.): 0.27 | minimal effective concentration (Table 2, lowest concentration tested giving growth above the 0 μM background, 37° C.): 12.5 µM

— patent US20100305068A1, “COMPOUNDS AND METHODS FOR MODULATING PROTEIN TRAFFICKING” (priority 2006, published 2010)
